The experiment deals with bovine cardiac myofibrils (full-length cardiac myosin ATPase in the native sarcomere) (Bos taurus (Bovine), UniProt Q9BE39). The experiment in a line: Skinned bovine cardiac myofibril ATPase assay (PK/LDH-coupled). In kind it is biochemical. As to conditions: Ca2+ activating to 75% of maximal rate; for CDMF75 IC15: concentration giving 15% inhibition; for IC50: read-out: CDMF75 IC50. A digest of the protocol: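 Triton-skinned bovine left-ventricle myofibrils (1 mg/mL) in PM 12 buffer (12 mM PIPES, 2 mM MgCl2, pH 6.8) with 50 μM ATP, 0.6 mM EGTA and CaCl2 set for 50% or 75% activation. Steady-state ATPase inhibition followed by PK/LDH-coupled NADH oxidation at 340 nm.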
Chain of bovine cardiac myofibrils (full-length cardiac myosin ATPase in the native sarcomere) (Q9BE39 whole entry): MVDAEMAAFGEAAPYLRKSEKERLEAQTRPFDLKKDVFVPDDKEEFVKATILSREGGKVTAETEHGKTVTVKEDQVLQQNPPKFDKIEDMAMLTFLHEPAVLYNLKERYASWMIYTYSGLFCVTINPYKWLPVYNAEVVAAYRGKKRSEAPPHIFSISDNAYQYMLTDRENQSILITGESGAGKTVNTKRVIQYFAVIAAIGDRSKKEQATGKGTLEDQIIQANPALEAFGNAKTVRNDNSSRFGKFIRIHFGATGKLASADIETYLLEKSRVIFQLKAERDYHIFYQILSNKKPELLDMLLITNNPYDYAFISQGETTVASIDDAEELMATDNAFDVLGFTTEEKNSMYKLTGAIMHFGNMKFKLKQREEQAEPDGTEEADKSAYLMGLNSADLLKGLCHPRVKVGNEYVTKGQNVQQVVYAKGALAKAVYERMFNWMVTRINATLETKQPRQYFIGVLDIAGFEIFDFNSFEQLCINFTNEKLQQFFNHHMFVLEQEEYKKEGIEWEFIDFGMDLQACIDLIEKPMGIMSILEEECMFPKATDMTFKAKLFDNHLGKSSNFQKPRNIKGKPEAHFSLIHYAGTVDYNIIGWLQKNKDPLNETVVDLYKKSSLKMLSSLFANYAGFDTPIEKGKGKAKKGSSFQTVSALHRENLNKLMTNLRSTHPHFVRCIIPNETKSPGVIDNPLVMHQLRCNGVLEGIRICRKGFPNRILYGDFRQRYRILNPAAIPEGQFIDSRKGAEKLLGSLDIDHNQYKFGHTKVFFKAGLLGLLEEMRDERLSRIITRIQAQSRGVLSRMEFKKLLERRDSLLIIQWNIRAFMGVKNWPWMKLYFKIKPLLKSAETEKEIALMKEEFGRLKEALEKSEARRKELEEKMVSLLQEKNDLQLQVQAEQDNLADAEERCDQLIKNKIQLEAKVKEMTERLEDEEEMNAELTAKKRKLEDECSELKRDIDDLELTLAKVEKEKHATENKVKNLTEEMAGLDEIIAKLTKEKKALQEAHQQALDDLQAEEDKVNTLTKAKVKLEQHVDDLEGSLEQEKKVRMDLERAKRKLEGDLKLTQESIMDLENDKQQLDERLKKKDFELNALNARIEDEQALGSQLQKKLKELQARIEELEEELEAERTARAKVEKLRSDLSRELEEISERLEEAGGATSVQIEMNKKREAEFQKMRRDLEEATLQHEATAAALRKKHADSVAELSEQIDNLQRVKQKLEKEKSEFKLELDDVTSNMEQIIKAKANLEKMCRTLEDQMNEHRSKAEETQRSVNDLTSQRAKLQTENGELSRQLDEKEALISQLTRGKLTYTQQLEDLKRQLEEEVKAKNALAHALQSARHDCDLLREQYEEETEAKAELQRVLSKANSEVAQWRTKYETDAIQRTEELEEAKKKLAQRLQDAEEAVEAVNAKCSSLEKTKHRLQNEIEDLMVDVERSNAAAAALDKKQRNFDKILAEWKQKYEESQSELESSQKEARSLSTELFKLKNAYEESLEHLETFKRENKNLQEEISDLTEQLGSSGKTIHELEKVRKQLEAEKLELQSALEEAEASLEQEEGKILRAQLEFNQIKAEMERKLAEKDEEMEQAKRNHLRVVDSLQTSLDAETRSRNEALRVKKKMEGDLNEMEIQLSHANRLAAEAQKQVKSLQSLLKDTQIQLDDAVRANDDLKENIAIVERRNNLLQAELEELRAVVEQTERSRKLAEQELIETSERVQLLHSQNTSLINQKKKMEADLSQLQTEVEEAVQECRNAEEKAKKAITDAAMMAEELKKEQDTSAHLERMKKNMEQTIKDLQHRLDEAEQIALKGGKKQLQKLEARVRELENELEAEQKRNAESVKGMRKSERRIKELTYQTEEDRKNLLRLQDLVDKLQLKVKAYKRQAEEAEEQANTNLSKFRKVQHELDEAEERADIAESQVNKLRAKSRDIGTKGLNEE
Chain of bovine cardiac myofibrils (full-length cardiac myosin ATPase in the native sarcomere) (P85100 whole entry partner): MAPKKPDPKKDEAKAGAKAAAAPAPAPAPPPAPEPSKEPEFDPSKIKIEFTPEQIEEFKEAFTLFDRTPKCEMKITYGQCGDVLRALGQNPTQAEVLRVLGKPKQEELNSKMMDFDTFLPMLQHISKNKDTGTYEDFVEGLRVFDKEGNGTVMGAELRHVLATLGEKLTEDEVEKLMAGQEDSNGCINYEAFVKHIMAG
Chain of bovine cardiac myofibrils (full-length cardiac myosin ATPase in the native sarcomere) (Q3SZE5 whole entry partner): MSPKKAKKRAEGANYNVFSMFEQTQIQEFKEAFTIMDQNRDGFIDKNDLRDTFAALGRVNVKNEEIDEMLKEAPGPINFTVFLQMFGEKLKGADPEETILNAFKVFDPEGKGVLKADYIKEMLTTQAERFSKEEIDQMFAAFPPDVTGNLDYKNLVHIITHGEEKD

For `CCc1nc(-c2ccc3c(c2)CC[C@H]3NC(=O)c2cc(C(C)=O)ccn2)no1` [Compound 720, (R)-4-acetyl-N-(5-(5-ethyl-1,2,4-oxadiazol-3-yl)-2,3-dihydro-1H-inden-1-yl)picolinamide], the “CDMF75 IC15” value was found to be 2300 nM and the IC50 (as a rule, the point on the concentration scale where inhibition reaches its midpoint) amounted to 10400 nM.
On the same counts, the results for `Cn1nnc(C(=O)N[C@@H]2CCc3cc(-c4nc(C(F)F)no4)ccc32)n1` [Compound 216, (R)-N-(5-(3-(difluoromethyl)-1,2,4-oxadiazol-5-yl)-2,3-dihydro-1H-inden-1-yl)-2-methyl-2H-tetrazole-5-carboxamide] are 1300 nM and 4900 nM.
For `Cc1nc(-c2ccc3c(c2)CC[C@H]3NC(=O)OCC(C)C)no1` [Compound 320, isobutyl (R)-(5-(5-methyl-1,2,4-oxadiazol-3-yl)-2,3-dihydro-1H-inden-1-yl)carbamate], in that order: 700 nM and 3100 nM.
For `Cc1cnnc(-c2ccc3c(c2)CC[C@H]3NC(=O)c2ccnn2C)c1` [Compound 383, (R)-1-methyl-N-(5-(5-methylpyridazin-3-yl)-2,3-dihydro-1H-inden-1-yl)-1H-pyrazole-5-carboxamide], in that order: 3400 nM and 11600 nM.
Take `Cc1cc(-c2ccc3c(c2)CC[C@H]3NC(=O)c2ocnc2C)no1` [Compound 418, (R)-4-methyl-N-(5-(5-methylisoxazol-3-yl)-2,3-dihydro-1H-inden-1-yl)oxazole-5-carboxamide]: the “CDMF75 IC15” value amounted to 300 nM and the IC50 stood at 1200 nM.
Turning to `Cc1nc(-c2ccc3c(c2)CC[C@H]3NC(=O)c2oncc2C)no1` [Compound 113, (R)-4-methyl-N-(5-(5-methyl-1,2,4-oxadiazol-3-yl)-2,3-dihydro-1H-inden-1-yl)isoxazole-5-carboxamide], the “CDMF75 IC15” value was found to be 300 nM and the IC50 was 1300 nM.
Regarding `Cn1nnc(C(=O)NC2COc3cc(-c4noc(C5CC5)n4)ccc32)n1` (stereo not shown) [Compound 234, N-(6-(5-cyclopropyl-1,2,4-oxadiazol-3-yl)-2,3-dihydrobenzofuran-3-yl)-2-methyl-2H-tetrazole-5-carboxamide], the “CDMF75 IC15” value is 1900 nM and the IC50 worked out at 8000 nM.
On the same counts, the results for `Cc1nc(-c2ccc3c(c2)CCC3NC(=O)c2cn(C)nc2C)no1` (stereo not shown) [Compound 55, 1,3-dimethyl-N-(5-(5-methyl-1,2,4-oxadiazol-3-yl)-2,3-dihydro-1H-inden-1-yl)-1H-pyrazole-4-carboxamide] are 2000 nM and 6800 nM.
On to `[2H]C([2H])([2H])c1nc(-c2ccc3c(c2)CC[C@H]3NC(=O)c2nnn(C)n2)no1` [Compound 243, (R)-2-methyl-N-(5-(5-(methyl-d3)-1,2,4-oxadiazol-3-yl)-2,3-dihydro-1H-inden-1-yl)-2H-tetrazole-5-carboxamide], for which the “CDMF75 IC15” value amounted to 1300 nM and the IC50 is 4700 nM.
In the case of `Cc1cncc(-c2ccc3c(c2)CC[C@H]3NC(=O)c2ccnn2C)n1` [Compound 382, (R)-1-methyl-N-(5-(6-methylpyrazin-2-yl)-2,3-dihydro-1H-inden-1-yl)-1H-pyrazole-5-carboxamide], the “CDMF75 IC15” value amounted to 2700 nM and the IC50 is 10100 nM.
On the same counts, the results for `COCc1nc(-c2ccc3c(c2)CC[C@H]3NC(=O)c2cn[nH]c2)no1` [Compound 490, (R)-N-(5-(5-(methoxymethyl)-1,2,4-oxadiazol-3-yl)-2,3-dihydro-1H-inden-1-yl)-1H-pyrazole-4-carboxamide] are 1600 nM and 6900 nM.
For `Cc1noc(C(=O)NC2CCc3cc(-c4noc(C)n4)ccc32)n1` (stereo not shown) [Compound 128, 3-methyl-N-(5-(5-methyl-1,2,4-oxadiazol-3-yl)-2,3-dihydro-1H-inden-1-yl)-1,2,4-oxadiazole-5-carboxamide], in that order: 2600 nM and 12200 nM.
On the same counts, the results for `Cc1ncccc1C(=O)NC1CCc2cc(-c3noc(C(F)F)n3)ccc21` (stereo not shown) [Compound 39, N-(5-(5-(difluoromethyl)-1,2,4-oxadiazol-3-yl)-2,3-dihydro-1H-inden-1-yl)-2-methylnicotinamide] are 31000 nM and over 39200 nM.
As for `Cc1cc(C(=O)NC2CCc3cc(-c4noc(C)n4)ccc32)on1` (stereo not shown) [Compound 34, 3-methyl-N-(5-(5-methyl-1,2,4-oxadiazol-3-yl)-2,3-dihydro-1H-inden-1-yl)isoxazole-5-carboxamide], the “CDMF75 IC15” value turned out to be 2100 nM and the 50% inhibitory concentration (IC50) came to 8100 nM.
On the same counts, the results for `COCc1nc(-c2ccc3c(c2)CC[C@H]3NC(=O)c2cccc([C@@H](C)O)c2)no1` [Compound 729, 3-((R)-1-hydroxyethyl)-N-((R)-5-(5-(methoxymethyl)-1,2,4-oxadiazol-3-yl)-2,3-dihydro-1H-inden-1-yl)benzamide] are 2600 nM and 13200 nM.
For `O=C(N[C@@H]1CCc2cc(-c3noc(C4CCC4)n3)ccc21)c1cnn(CCO)c1` [Compound 524, (R)-N-(5-(5-cyclobutyl-1,2,4-oxadiazol-3-yl)-2,3-dihydro-1H-inden-1-yl)-1-(2-hydroxyethyl)-1H-pyrazole-4-carboxamide], in that order: 1700 nM and 7300 nM.
For `CCc1nc(-c2ccc3c(c2)CC[C@H]3NC(=O)c2cnc(C)s2)no1` [Compound 595, (R)-N-(5-(5-ethyl-1,2,4-oxadiazol-3-yl)-2,3-dihydro-1H-inden-1-yl)-2-methylthiazole-5-carboxamide], in that order: 300 nM and 1000 nM.
Regarding `CCc1nc(-c2ccc3c(c2)CC[C@H]3NC(=O)c2cccc(CO)c2F)no1` [Compound 654, (R)-N-(5-(5-ethyl-1,2,4-oxadiazol-3-yl)-2,3-dihydro-1H-inden-1-yl)-2-fluoro-3-(hydroxymethyl)benzamide], the “CDMF75 IC15” value came out at 600 nM and the IC50 was 2200 nM.
For `Nc1cc(C(=O)NC2CCc3cc(-c4noc(C(F)F)n4)ccc32)ccn1` (stereo not shown) [Compound 99, 2-amino-N-(5-(5-(difluoromethyl)-1,2,4-oxadiazol-3-yl)-2,3-dihydro-1H-inden-1-yl)isonicotinamide], in that order: 600 nM and 2600 nM.
Turning to `Cc1ncoc1C(=O)N[C@@H]1COc2cc(-c3noc(C4(C)CC4)n3)ccc21` [Compound 462, (S)-4-methyl-N-(6-(5-(1-methylcyclopropyl)-1,2,4-oxadiazol-3-yl)-2,3-dihydrobenzofuran-3-yl)oxazole-5-carboxamide], the “CDMF75 IC15” value was 400 nM and the IC50 was determined as 1400 nM.
As to `CCc1nc(-c2cnc3c(c2)CCC3NC(=O)c2ccccc2)no1` (stereo not shown) [Compound 17, N-(3-(5-ethyl-1,2,4-oxadiazol-3-yl)-6,7-dihydro-5H-cyclopenta[b]pyridin-7-yl)benzamide], the “CDMF75 IC15” value was 2300 nM and the IC50 amounted to 11300 nM.
Regarding `CCc1nc(-c2ccc3c(c2)OC[C@H]3NC(=O)c2ocnc2C)no1` [Compound 455, (S)-N-(6-(5-ethyl-1,2,4-oxadiazol-3-yl)-2,3-dihydrobenzofuran-3-yl)-4-methyloxazole-5-carboxamide], the “CDMF75 IC15” value turned out to be 200 nM and the half-inhibitory concentration (IC50) amounted to 700 nM.
On the same counts, the results for `CCc1nc(-c2ccc3c(c2)CC[C@H]3NC(=O)c2cnn(CC(N)=O)c2)no1` [Compound 475, (R)-1-(2-amino-2-oxoethyl)-N-(5-(5-ethyl-1,2,4-oxadiazol-3-yl)-2,3-dihydro-1H-inden-1-yl)-1H-pyrazole-4-carboxamide] are 900 nM and 3800 nM.
On the same counts, the results for `CCc1nc(-c2ccc3c(c2)OCC[C@H]3NC(=O)c2cnn(C)c2)no1` [Compound 535, (R)-N-(7-(5-ethyl-1,2,4-oxadiazol-3-yl)chroman-4-yl)-1-methyl-1H-pyrazole-4-carboxamide] are 1000 nM and 5800 nM.
For `COCc1nc(-c2ccc3c(c2)CC[C@H]3NC(=O)c2cc(CO)ccn2)no1` [Compound 673, (R)-4-(hydroxymethyl)-N-(5-(5-(methoxymethyl)-1,2,4-oxadiazol-3-yl)-2,3-dihydro-1H-inden-1-yl)picolinamide], the “CDMF75 IC15” value was found to be 2800 nM and the IC50 came to 13000 nM.
Turning to `CCc1cc(-c2ccc3c(c2)CC[C@H]3NC(=O)c2cn[nH]c2C)no1` [Compound 431, (R)—N-(5-(5-ethylisoxazol-3-yl)-2,3-dihydro-1H-inden-1-yl)-5-methyl-1H-pyrazole-4-carboxamide], the “CDMF75 IC15” value was 300 nM and the 50% inhibitory concentration (IC50) was 900 nM.
For `CC(CO)c1nc(-c2ccc3c(c2)CC[C@H]3NC(=O)c2ccnn2C)no1` (stereo partly drawn) [Compound 496, N-((1R)-5-(5-(1-hydroxypropan-2-yl)-1,2,4-oxadiazol-3-yl)-2,3-dihydro-1H-inden-1-yl)-1-methyl-1H-pyrazole-5-carboxamide], in that order: 7100 nM and 34300 nM.
On the same counts, the results for `CCc1nc(-c2ccc3c(c2)CC[C@H]3NC(=O)c2cnn(C3CN(C(=O)NC)C3)c2)no1` [Compound 479, (R)-N-(5-(5-ethyl-1,2,4-oxadiazol-3-yl)-2,3-dihydro-1H-inden-1-yl)-1-(1-(methylcarbamoyl)azetidin-3-yl)-1H-pyrazole-4-carboxamide] are 4500 nM and 23100 nM.
For `CCc1cc(-c2ccc3c(c2)OC[C@H]3NC(=O)c2ccnc(C)c2)no1` [Compound 425, (S)-N-(6-(5-ethylisoxazol-3-yl)-2,3-dihydrobenzofuran-3-yl)-2-methylisonicotinamide], in that order: 300 nM and 1200 nM.

The record behind these values is patent US12065436B2, “Cardiac sarcomere inhibitors” (Cytokinetics, Inc., priority 2018, dated 2024).
